The text below walks through data of article PMC9519396, “First thermostable CLIP-tag by rational design applied to an archaeal O^6-alkyl-guanine-DNA-alkyl-transferase” (Computational and Structural Biotechnology Journal, 2022).

The assay concerns the target T1, SsOGT-MC^8 (Saccharolobus solfataricus, UniProt Q97VW7, G105N/G130P/K110E/M106T/R102A/S100A/S109D/S132L).
T1 construct: gene ogt; TSCLIP; synthetic gene with eight substitutions, Y90 kept; His6-tag, pHTP1, E. coli BL21 Rosetta2 (DE3), Ni-NTA purified; 8AES holds no ligand
T1 sequence (Q97VW7 1-151 S100A/R102A/G105N/M106T/S109D/K110E/G130P/S132L): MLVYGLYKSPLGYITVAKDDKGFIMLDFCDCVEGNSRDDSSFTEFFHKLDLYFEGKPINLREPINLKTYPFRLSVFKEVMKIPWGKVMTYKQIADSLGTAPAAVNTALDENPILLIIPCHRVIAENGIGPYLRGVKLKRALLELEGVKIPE
Description: competitive labelling with BC-TMR, SDS-PAGE fluorescence gel imaging. It is filed as biochemical. The text has this: competitive labelling with BC-TMR, SDS-PAGE fluorescence gel imaging on SsOGT-MC^8

In general, IC50 refers to the concentration that gives 50% inhibition. Lower therefore signals greater potency in that assay.

For `[N-]=[N+]=NCCCCCC(=O)NCc1ccc(COc2nccc(N)n2)cc1` [BC-2], the IC50 came to 128 ± 31.1 µM.
